{"source": "patent US12435059B2", "about": "“AMP-activated protein kinase inhibitors and methods of making and using the same” (The Regents of the University of Colorado, priority 2019, dated 2025)", "assay_in_all_cases": "biochemical", "assay_type_in_all_cases": "binding", "key": {"468 kinases [1]": {"target": "468 kinases (Homo sapiens, UniProt P21802)", "conditions": "FGFR2; read-out: % Inhibition @ 100 nM"}, "468 kinases [2]": {"target": "468 kinases (Homo sapiens, UniProt P42336, H1047Y)", "conditions": "PIK3CA(H1047Y); read-out: % Inhibition @ 100 nM"}, "468 kinases [3]": {"target": "468 kinases (Homo sapiens, UniProt P57058)", "conditions": "HUNK; read-out: % Inhibition @ 100 nM"}, "468 kinases [4]": {"target": "468 kinases (Homo sapiens, UniProt P57059)", "conditions": "SIK; read-out: % Inhibition @ 100 nM"}, "468 kinases [5]": {"target": "468 kinases (Homo sapiens, UniProt P78368)", "conditions": "CSNK1G2; read-out: % Inhibition @ 100 nM"}, "468 kinases [6]": {"target": "468 kinases (Homo sapiens, UniProt P37173)", "conditions": "TGFBR2; read-out: % Inhibition @ 100 nM"}, "468 kinases [7]": {"target": "468 kinases (Homo sapiens, UniProt Q86YV6)", "conditions": "MYLK4; read-out: % Inhibition @ 100 nM"}, "468 kinases [8]": {"target": "468 kinases (Homo sapiens, UniProt P35916)", "conditions": "FLT4; read-out: % Inhibition @ 100 nM"}, "468 kinases [9]": {"target": "468 kinases (Homo sapiens, UniProt Q9Y5S2)", "conditions": "MRCKB; read-out: % Inhibition @ 100 nM"}, "468 kinases [10]": {"target": "468 kinases (Homo sapiens, UniProt Q9UPE1)", "conditions": "SRPK3; read-out: % Inhibition @ 100 nM"}, "468 kinases [11]": {"target": "468 kinases (Homo sapiens, UniProt P54756)", "sequence (P54756 25-1037 limits assumed)": "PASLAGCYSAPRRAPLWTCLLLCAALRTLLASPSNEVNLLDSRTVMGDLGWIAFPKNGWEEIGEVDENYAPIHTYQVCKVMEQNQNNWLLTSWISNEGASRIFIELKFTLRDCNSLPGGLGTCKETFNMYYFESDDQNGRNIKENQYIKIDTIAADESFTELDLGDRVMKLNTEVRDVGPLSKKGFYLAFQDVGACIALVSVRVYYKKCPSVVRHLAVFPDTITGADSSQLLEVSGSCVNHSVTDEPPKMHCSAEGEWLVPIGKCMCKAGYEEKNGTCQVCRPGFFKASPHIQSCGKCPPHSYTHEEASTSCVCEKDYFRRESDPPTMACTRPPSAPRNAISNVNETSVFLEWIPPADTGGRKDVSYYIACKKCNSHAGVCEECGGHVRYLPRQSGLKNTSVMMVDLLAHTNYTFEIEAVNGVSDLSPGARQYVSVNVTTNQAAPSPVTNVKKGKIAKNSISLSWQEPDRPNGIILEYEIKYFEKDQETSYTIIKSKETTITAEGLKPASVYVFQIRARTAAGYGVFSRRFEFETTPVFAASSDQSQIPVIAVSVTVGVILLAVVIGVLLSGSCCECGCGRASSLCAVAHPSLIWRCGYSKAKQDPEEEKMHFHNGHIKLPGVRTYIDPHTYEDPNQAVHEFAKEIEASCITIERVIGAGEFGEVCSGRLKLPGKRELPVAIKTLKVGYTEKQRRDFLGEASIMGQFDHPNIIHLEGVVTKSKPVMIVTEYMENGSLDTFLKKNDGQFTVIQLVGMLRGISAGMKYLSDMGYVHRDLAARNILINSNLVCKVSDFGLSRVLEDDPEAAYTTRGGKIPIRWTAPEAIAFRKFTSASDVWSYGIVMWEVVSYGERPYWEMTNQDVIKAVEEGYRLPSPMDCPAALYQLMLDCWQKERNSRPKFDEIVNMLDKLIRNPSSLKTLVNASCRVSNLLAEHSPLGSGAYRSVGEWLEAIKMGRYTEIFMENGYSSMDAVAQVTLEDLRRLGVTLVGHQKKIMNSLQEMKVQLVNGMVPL", "conditions": "EPHA5; read-out: % Inhibition @ 100 nM"}, "468 kinases [12]": {"target": "468 kinases (Homo sapiens, UniProt P42338)", "conditions": "PIK3CB; read-out: % Inhibition @ 100 nM"}, "468 kinases [13]": {"target": "468 kinases (Homo sapiens, UniProt P10721, A829P)", "conditions": "KIT(A829P); read-out: % Inhibition @ 100 nM"}, "468 kinases [14]": {"target": "468 kinases (Homo sapiens, UniProt P15735)", "conditions": "PHKG2; read-out: % Inhibition @ 100 nM"}, "468 kinases [15]": {"target": "468 kinases (Homo sapiens, UniProt Q99640)", "conditions": "PKMYT1; read-out: % Inhibition @ 100 nM"}, "468 kinases [16]": {"target": "468 kinases (Homo sapiens, UniProt P04629)", "conditions": "TRKA; read-out: % Inhibition @ 100 nM"}, "468 kinases [17]": {"target": "468 kinases (Homo sapiens, UniProt Q9Y2H9)", "conditions": "MAST1; read-out: % Inhibition @ 100 nM"}, "468 kinases [18]": {"target": "468 kinases (Homo sapiens, UniProt O00506)", "conditions": "YSK1; read-out: % Inhibition @ 100 nM"}, "468 kinases [19]": {"target": "468 kinases (Homo sapiens, UniProt Q9P289)", "sequence (Q9P289 2-416 limits assumed)": "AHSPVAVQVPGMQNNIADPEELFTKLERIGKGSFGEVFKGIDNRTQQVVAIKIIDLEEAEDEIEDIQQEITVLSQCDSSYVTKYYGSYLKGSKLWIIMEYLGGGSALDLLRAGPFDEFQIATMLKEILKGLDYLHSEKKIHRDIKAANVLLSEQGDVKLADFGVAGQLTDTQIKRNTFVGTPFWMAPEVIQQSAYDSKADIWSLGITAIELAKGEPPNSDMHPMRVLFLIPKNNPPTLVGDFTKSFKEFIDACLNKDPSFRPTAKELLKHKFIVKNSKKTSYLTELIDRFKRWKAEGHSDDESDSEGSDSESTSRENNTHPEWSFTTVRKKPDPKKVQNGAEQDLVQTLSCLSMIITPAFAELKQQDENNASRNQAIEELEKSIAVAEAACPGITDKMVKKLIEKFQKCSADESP", "conditions": "MST4; read-out: % Inhibition @ 100 nM"}, "468 kinases [20]": {"target": "468 kinases (Homo sapiens, UniProt P42336, H1047L)", "conditions": "PIK3CA(H1047L); read-out: % Inhibition @ 100 nM"}, "468 kinases [21]": {"target": "468 kinases (Homo sapiens, UniProt Q96BR1)", "conditions": "SGK3; read-out: % Inhibition @ 100 nM"}, "468 kinases [22]": {"target": "468 kinases (Homo sapiens, UniProt P54753)", "conditions": "EPHB3; read-out: % Inhibition @ 100 nM"}, "468 kinases [23]": {"target": "468 kinases (Homo sapiens, UniProt O94768)", "conditions": "DRAK2; read-out: % Inhibition @ 100 nM"}, "468 kinases [24]": {"target": "468 kinases (Homo sapiens, UniProt P49336)", "conditions": "CDK8; read-out: % Inhibition @ 100 nM"}, "468 kinases [25]": {"target": "468 kinases (Homo sapiens, UniProt Q8IW41)", "conditions": "MAPKAPK5; read-out: % Inhibition @ 100 nM"}, "468 kinases [26]": {"target": "468 kinases (Homo sapiens, UniProt O75914)", "conditions": "PAK3; read-out: % Inhibition @ 100 nM"}, "468 kinases [27]": {"target": "468 kinases (Homo sapiens, UniProt Q9Y2H1)", "sequence (Q9Y2H1 2-464 limits assumed)": "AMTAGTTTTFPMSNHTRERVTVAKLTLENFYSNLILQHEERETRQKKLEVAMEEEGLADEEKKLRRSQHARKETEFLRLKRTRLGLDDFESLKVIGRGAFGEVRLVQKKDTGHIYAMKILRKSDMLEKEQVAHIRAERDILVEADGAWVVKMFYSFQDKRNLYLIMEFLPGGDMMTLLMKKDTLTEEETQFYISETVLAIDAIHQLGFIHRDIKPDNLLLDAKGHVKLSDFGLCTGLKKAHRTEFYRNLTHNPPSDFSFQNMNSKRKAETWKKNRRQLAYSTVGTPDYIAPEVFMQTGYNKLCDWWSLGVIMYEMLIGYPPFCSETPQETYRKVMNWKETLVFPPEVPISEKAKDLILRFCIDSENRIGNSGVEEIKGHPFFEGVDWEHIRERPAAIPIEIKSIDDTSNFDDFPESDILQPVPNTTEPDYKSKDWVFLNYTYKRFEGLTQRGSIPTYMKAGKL", "conditions": "NDR2; read-out: % Inhibition @ 100 nM"}, "468 kinases [28]": {"target": "468 kinases (Homo sapiens, UniProt Q9UIK4)", "conditions": "DAPK2; read-out: % Inhibition @ 100 nM"}, "468 kinases [29]": {"target": "468 kinases (Homo sapiens, UniProt P51813)", "conditions": "BMX; read-out: % Inhibition @ 100 nM"}, "468 kinases [30]": {"target": "468 kinases (Homo sapiens, UniProt Q15569)", "conditions": "TESK1; read-out: % Inhibition @ 100 nM"}, "468 kinases [31]": {"target": "468 kinases (Homo sapiens, UniProt P04626)", "sequence (P04626 23-1255 limits assumed)": "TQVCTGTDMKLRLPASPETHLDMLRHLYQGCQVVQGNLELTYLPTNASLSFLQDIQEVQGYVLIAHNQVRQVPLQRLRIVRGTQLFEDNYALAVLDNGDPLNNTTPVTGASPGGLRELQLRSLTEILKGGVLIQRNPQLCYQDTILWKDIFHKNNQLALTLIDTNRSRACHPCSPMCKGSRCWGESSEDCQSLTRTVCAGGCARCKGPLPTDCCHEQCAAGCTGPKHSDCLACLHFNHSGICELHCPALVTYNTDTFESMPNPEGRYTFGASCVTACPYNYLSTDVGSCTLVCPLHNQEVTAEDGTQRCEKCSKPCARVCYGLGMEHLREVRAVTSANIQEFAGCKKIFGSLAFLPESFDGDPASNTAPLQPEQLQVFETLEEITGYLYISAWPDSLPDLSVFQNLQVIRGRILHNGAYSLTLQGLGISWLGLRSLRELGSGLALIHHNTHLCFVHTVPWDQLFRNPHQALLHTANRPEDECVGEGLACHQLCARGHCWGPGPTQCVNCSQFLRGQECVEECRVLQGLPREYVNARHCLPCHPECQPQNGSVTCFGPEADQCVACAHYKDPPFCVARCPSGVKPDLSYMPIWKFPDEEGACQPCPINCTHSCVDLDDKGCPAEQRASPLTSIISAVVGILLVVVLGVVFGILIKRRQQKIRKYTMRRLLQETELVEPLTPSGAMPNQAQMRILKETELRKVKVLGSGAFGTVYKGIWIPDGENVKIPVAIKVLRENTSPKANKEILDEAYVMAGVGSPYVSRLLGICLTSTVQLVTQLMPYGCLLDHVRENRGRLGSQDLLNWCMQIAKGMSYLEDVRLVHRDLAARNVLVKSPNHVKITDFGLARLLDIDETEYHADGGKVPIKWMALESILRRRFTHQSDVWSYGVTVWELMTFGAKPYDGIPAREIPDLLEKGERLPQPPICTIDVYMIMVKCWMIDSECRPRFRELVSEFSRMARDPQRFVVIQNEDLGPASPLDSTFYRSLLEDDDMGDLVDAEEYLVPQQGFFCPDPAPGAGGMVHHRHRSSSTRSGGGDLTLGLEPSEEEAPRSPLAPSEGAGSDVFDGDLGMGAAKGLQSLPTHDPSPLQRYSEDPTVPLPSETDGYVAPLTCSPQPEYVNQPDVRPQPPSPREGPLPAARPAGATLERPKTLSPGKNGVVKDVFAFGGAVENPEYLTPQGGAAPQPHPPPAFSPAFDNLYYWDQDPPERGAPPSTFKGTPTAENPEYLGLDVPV", "conditions": "ERBB2; read-out: % Inhibition @ 100 nM"}, "468 kinases [32]": {"target": "468 kinases (Homo sapiens, UniProt Q16832)", "sequence (Q16832 22-855 limits assumed)": "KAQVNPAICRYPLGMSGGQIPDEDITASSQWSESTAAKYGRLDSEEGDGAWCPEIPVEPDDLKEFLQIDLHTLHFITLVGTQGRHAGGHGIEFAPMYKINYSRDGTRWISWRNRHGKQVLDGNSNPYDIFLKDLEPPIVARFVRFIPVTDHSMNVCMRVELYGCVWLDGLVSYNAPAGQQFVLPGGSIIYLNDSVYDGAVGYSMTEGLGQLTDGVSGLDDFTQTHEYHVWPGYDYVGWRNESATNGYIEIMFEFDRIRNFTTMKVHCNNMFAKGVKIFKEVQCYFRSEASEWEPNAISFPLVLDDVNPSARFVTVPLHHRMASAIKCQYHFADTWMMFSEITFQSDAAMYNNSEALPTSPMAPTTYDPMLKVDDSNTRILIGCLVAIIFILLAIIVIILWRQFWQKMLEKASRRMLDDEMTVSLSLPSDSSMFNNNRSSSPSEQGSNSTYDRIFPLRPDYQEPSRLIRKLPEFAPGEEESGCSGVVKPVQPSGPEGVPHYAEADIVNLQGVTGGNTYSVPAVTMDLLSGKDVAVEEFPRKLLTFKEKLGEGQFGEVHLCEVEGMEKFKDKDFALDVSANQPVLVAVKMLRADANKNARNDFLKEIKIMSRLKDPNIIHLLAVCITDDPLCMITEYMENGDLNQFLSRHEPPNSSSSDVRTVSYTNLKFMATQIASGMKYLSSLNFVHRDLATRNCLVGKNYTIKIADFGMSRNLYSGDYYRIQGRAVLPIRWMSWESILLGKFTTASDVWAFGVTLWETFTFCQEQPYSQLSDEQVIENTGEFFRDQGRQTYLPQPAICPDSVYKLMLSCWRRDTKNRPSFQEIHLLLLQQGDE", "conditions": "DDR2; read-out: % Inhibition @ 100 nM"}, "468 kinases [33]": {"target": "468 kinases (Homo sapiens, UniProt Q02763)", "sequence (Q02763 23-1124 limits assumed)": "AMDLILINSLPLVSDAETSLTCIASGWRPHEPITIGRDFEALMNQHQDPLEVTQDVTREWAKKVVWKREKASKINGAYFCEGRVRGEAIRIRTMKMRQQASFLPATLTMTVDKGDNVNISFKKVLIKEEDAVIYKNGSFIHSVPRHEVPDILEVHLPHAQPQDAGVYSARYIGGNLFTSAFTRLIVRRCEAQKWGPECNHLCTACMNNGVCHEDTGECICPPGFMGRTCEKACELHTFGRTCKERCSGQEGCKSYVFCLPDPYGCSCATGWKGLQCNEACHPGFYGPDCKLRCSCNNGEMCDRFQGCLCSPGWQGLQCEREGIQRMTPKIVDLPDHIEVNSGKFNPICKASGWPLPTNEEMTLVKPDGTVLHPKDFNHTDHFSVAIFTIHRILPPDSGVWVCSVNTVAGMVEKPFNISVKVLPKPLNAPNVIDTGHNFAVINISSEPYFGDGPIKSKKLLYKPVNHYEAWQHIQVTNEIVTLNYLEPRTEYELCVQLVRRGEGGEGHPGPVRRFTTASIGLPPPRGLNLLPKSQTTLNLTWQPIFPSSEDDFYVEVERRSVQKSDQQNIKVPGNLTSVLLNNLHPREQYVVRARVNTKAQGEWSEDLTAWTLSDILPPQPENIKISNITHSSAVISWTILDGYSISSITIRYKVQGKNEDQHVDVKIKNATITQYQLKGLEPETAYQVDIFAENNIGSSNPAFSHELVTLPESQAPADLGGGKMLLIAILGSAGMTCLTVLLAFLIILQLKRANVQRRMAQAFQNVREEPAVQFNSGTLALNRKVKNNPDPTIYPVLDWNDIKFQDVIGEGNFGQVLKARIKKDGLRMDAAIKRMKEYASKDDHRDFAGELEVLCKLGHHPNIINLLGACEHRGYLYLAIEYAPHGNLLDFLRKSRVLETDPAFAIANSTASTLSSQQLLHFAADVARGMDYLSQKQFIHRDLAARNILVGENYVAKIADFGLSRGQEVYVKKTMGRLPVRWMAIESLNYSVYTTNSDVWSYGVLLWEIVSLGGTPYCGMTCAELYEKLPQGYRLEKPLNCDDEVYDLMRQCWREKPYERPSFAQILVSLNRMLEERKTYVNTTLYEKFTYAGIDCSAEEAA", "conditions": "TIE2; read-out: % Inhibition @ 100 nM"}}, "data": [{"molecule": "CCN(CC)CCNC(=O)c1c(C)[nH]c(/C=C2\\C(=O)Nc3ccc(CCC(N)=O)cc32)c1C", "note": "[Compound No. 16, (Z)-5-((5-(3-Amino-3-oxopropyl)-2-oxoindolin-3-ylidene)methyl)-N-(2-(diethylamino)ethyl)-2,4-dimethyl-1H-pyrrole-3-carboxamide]", "values": [{"measurement": "inhibition at 0.1 µM", "setting": "468 kinases [1]", "value": 1, "unit": "%"}, {"measurement": "inhibition at 0.1 µM", "setting": "468 kinases [2]", "value": 28, "unit": "%"}, {"measurement": "inhibition at 0.1 µM", "setting": "468 kinases [3]", "value": 0, "unit": "%"}, {"measurement": "inhibition at 0.1 µM", "setting": "468 kinases [4]", "value": 9, "unit": "%"}, {"measurement": "inhibition at 0.1 µM", "setting": "468 kinases [5]", "value": 3, "unit": "%"}, {"measurement": "inhibition at 0.1 µM", "setting": "468 kinases [6]", "value": 0, "unit": "%"}, {"measurement": "inhibition at 0.1 µM", "setting": "468 kinases [7]", "value": 24, "unit": "%"}, {"measurement": "inhibition at 0.1 µM", "setting": "468 kinases [8]", "value": 56, "unit": "%"}, {"measurement": "inhibition at 0.1 µM", "setting": "468 kinases [9]", "value": 15, "unit": "%"}, {"measurement": "inhibition at 0.1 µM", "setting": "468 kinases [10]", "value": 77, "unit": "%"}, {"measurement": "inhibition at 0.1 µM", "setting": "468 kinases [11]", "value": 9, "unit": "%"}, {"measurement": "inhibition at 0.1 µM", "setting": "468 kinases [12]", "value": 3, "unit": "%"}, {"measurement": "inhibition at 0.1 µM", "setting": "468 kinases [13]", "value": 35, "unit": "%"}, {"measurement": "inhibition at 0.1 µM", "setting": "468 kinases [14]", "value": 97.2, "unit": "%"}, {"measurement": "inhibition at 0.1 µM", "setting": "468 kinases [15]", "value": 18, "unit": "%"}, {"measurement": "inhibition at 0.1 µM", "setting": "468 kinases [16]", "value": 97.4, "unit": "%"}, {"measurement": "inhibition at 0.1 µM", "setting": "468 kinases [17]", "value": 30, "unit": "%"}, {"measurement": "inhibition at 0.1 µM", "setting": "468 kinases [18]", "value": 22, "unit": "%"}, {"measurement": "inhibition at 0.1 µM", "setting": "468 kinases [19]", "value": 37, "unit": "%"}, {"measurement": "inhibition at 0.1 µM", "setting": "468 kinases [20]", "value": 15, "unit": "%"}, {"measurement": "inhibition at 0.1 µM", "setting": "468 kinases [21]", "value": 26, "unit": "%"}, {"measurement": "inhibition at 0.1 µM", "setting": "468 kinases [22]", "value": 0, "unit": "%"}, {"measurement": "inhibition at 0.1 µM", "setting": "468 kinases [23]", "value": 0, "unit": "%"}, {"measurement": "inhibition at 0.1 µM", "setting": "468 kinases [24]", "value": 15, "unit": "%"}, {"measurement": "inhibition at 0.1 µM", "setting": "468 kinases [25]", "value": 28, "unit": "%"}, {"measurement": "inhibition at 0.1 µM", "setting": "468 kinases [26]", "value": 13, "unit": "%"}, {"measurement": "inhibition at 0.1 µM", "setting": "468 kinases [27]", "value": 11, "unit": "%"}, {"measurement": "inhibition at 0.1 µM", "setting": "468 kinases [28]", "value": 7, "unit": "%"}, {"measurement": "inhibition at 0.1 µM", "setting": "468 kinases [29]", "value": 8, "unit": "%"}, {"measurement": "inhibition at 0.1 µM", "setting": "468 kinases [30]", "value": 5, "unit": "%"}, {"measurement": "inhibition at 0.1 µM", "setting": "468 kinases [31]", "value": 0, "unit": "%"}, {"measurement": "inhibition at 0.1 µM", "setting": "468 kinases [32]", "value": 27, "unit": "%"}, {"measurement": "inhibition at 0.1 µM", "setting": "468 kinases [33]", "value": 0, "unit": "%"}]}, {"molecule": "CCN(CC)CCNC(=O)c1c(C)[nH]c(/C=C2\\C(=O)Nc3ccc(CCO)cc32)c1C", "note": "[Compound No. 10, (Z)—N-(2-(Diethylamino)ethyl)-5-((5-(2-hydroxyethyl)-2-oxoindolin-3-ylidene)methyl)-2,4-dimethyl-1H-pyrrole-3-carboxamide]", "values": [{"measurement": "inhibition at 0.1 µM", "setting": "468 kinases [1]", "value": 37, "unit": "%"}, {"measurement": "inhibition at 0.1 µM", "setting": "468 kinases [2]", "value": 4, "unit": "%"}, {"measurement": "inhibition at 0.1 µM", "setting": "468 kinases [3]", "value": 13, "unit": "%"}, {"measurement": "inhibition at 0.1 µM", "setting": "468 kinases [4]", "value": 0, "unit": "%"}, {"measurement": "inhibition at 0.1 µM", "setting": "468 kinases [5]", "value": 0, "unit": "%"}, {"measurement": "inhibition at 0.1 µM", "setting": "468 kinases [6]", "value": 0, "unit": "%"}, {"measurement": "inhibition at 0.1 µM", "setting": "468 kinases [7]", "value": 32, "unit": "%"}, {"measurement": "inhibition at 0.1 µM", "setting": "468 kinases [8]", "value": 27, "unit": "%"}, {"measurement": "inhibition at 0.1 µM", "setting": "468 kinases [9]", "value": 0, "unit": "%"}, {"measurement": "inhibition at 0.1 µM", "setting": "468 kinases [10]", "value": 88, "unit": "%"}, {"measurement": "inhibition at 0.1 µM", "setting": "468 kinases [11]", "value": 0, "unit": "%"}, {"measurement": "inhibition at 0.1 µM", "setting": "468 kinases [12]", "value": 0, "unit": "%"}, {"measurement": "inhibition at 0.1 µM", "setting": "468 kinases [13]", "value": 0, "unit": "%"}, {"measurement": "inhibition at 0.1 µM", "setting": "468 kinases [14]", "value": 94.4, "unit": "%"}, {"measurement": "inhibition at 0.1 µM", "setting": "468 kinases [15]", "value": 19, "unit": "%"}, {"measurement": "inhibition at 0.1 µM", "setting": "468 kinases [16]", "value": 95.5, "unit": "%"}, {"measurement": "inhibition at 0.1 µM", "setting": "468 kinases [17]", "value": 40, "unit": "%"}, {"measurement": "inhibition at 0.1 µM", "setting": "468 kinases [18]", "value": 21, "unit": "%"}, {"measurement": "inhibition at 0.1 µM", "setting": "468 kinases [19]", "value": 0, "unit": "%"}, {"measurement": "inhibition at 0.1 µM", "setting": "468 kinases [20]", "value": 16, "unit": "%"}, {"measurement": "inhibition at 0.1 µM", "setting": "468 kinases [21]", "value": 0, "unit": "%"}, {"measurement": "inhibition at 0.1 µM", "setting": "468 kinases [22]", "value": 0, "unit": "%"}, {"measurement": "inhibition at 0.1 µM", "setting": "468 kinases [23]", "value": 1, "unit": "%"}, {"measurement": "inhibition at 0.1 µM", "setting": "468 kinases [24]", "value": 23, "unit": "%"}, {"measurement": "inhibition at 0.1 µM", "setting": "468 kinases [25]", "value": 0, "unit": "%"}, {"measurement": "inhibition at 0.1 µM", "setting": "468 kinases [26]", "value": 36, "unit": "%"}, {"measurement": "inhibition at 0.1 µM", "setting": "468 kinases [27]", "value": 0, "unit": "%"}, {"measurement": "inhibition at 0.1 µM", "setting": "468 kinases [28]", "value": 0, "unit": "%"}, {"measurement": "inhibition at 0.1 µM", "setting": "468 kinases [29]", "value": 11, "unit": "%"}, {"measurement": "inhibition at 0.1 µM", "setting": "468 kinases [30]", "value": 10, "unit": "%"}, {"measurement": "inhibition at 0.1 µM", "setting": "468 kinases [31]", "value": 0, "unit": "%"}, {"measurement": "inhibition at 0.1 µM", "setting": "468 kinases [32]", "value": 12, "unit": "%"}, {"measurement": "inhibition at 0.1 µM", "setting": "468 kinases [33]", "value": 0, "unit": "%"}]}]}
